Measured values as given in PMC9458058, “Synthesis of N-Substituted Iminosugar C-Glycosides and Evaluation as Promising α-Glucosidase Inhibitors” (Molecules, 2022).
pIC50, pKi: −log10 of the molar value. Where two headings read alike, the source gives them in different places.

Assays:
α-glucosidase from yeast = α-glucosidase from yeast (Saccharomyces cerevisiae, UniProt P53341); assay: biochemical; format: biochemical; conditions: for inhibition of α-glucosidase, in words: Figure 3, 1 µg/mL, relative to lead compound 4 / Acarbose; for inhibition potency compared with compound 5λ, in words: Table 2
Chain of α-glucosidase from yeast (P53341 whole entry): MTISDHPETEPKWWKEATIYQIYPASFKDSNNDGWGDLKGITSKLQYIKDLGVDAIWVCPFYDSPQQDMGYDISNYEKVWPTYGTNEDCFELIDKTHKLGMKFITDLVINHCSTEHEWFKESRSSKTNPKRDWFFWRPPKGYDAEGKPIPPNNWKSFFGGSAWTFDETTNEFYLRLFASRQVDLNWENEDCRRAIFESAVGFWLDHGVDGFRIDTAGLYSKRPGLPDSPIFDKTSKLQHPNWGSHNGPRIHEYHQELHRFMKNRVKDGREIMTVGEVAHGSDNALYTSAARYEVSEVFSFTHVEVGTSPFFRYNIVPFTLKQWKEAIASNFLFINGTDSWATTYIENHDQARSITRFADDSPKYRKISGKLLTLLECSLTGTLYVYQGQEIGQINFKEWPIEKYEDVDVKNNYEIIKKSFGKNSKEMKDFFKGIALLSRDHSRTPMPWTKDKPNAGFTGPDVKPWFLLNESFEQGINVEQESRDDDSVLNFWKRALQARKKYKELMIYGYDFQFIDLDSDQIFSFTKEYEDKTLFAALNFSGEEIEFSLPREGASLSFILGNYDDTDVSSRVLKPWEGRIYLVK
Method: The inhibitory potency of the synthesized N-substituted iminosugar C-glycosides 5 was assessed by testing the compounds in assays for the α-glucosidase from yeast. […] Alternatively, N atom was modified with various benzaldehydes, giving a library of iminosugar C-glycosides containing phenyl.
The extracts of each sample were dissolved in distilled water to prepare a certain concentration. 150 µL of the sample solution was mixed with 150 µL of maltose solution (prepared with 0.2 M, pH = 6.8 phosphate buffer) at a certain concentration, and cultured at 37 °C for 10 min. Then 150 µL of the enzyme solution at a certain concentration was added and mixed. The reaction was carried out at 37 °C for 60 min. The reaction was terminated in a boiling water bath for 10 min and centrifuged at 3000 r/min for 10 min. The supernatant was taken to determine the content of glucose with Glu kit. […] Enzyme activity inhibition rate (%) = (negative-sample)/(negative-blank) × 100%.

α-glucosidase = α-glucosidase (Saccharomyces cerevisiae, UniProt P53341); assay: Enzyme kinetics experiment (ultrafiltration recovery, Lineweaver-Burk plots); format: biochemical
Chain of α-glucosidase (P53341 whole entry): as above
Source text: To determine which mechanism 6e belonged to, we removed the unreacted inhibitor from the enzyme solution by ultrafiltration, and examined whether the activity would be recovered or not by the method described in the literatures. When an enzyme solution containing 6e was subjected to ultrafiltration and then redissolved with the same concentration, the α-glucosidase activity was substantially recovered (Figure 5A).
Further analysis of the compound 6e, in order to reveal the type of enzyme inhibition on α-glucosidase, was done with different substrate concentration.
Enzyme kinetics experiment: The principle of the experimental method is the same as that of the above method, in which the micro-membrane centrifuge tube with a pore diameter of 3K is used for small molecule centrifugal separation. In the enzyme kinetics experiment, the concentration of enzyme was set at a fixed concentration, and five concentration gradients were designed for the solution of substrate maltose. The linear relationship was plotted using the obtained results combined with the Michaelis-Menten equation.

[1] = read-out: IC50 against α-glucosidase from yeast

SMILES: CC(=O)C[C@H]1NC[C@@H](O)[C@@H](O)[C@H]1O [Compound 4, 1-C-Acetylmethyl-5-deoxy-5-amino-α-D-ribopyranoside]
- pIC50 (α-glucosidase from yeast): < 4.70
- inhibition of α-glucosidase, in words (α-glucosidase from yeast): weak inhibitory activity

SMILES: CCCN1C[C@@H](O)[C@@H](O)[C@@H](O)[C@H]1CC(C)=O [Compound 5a, (1R, 2S, 3R, 4R)-1-Acetylmethyl-2,3,4-trihydroxyl-N-n-propylpiperidine]
- inhibition of α-glucosidase, in words (α-glucosidase from yeast): no improvement of α-glucosidase inhibition

SMILES: CC(=O)CC1C(O)C(O)C(O)CN1Cc1ccc(C)cc1 [Compound 5j, (1R, 2S, 3R, 4R)-1-Acetylmethyl-2,3,4-trihydroxyl-N-4-methylbenzylpiperidine]
- inhibition of α-glucosidase, in words (α-glucosidase from yeast): The same result was obtained

SMILES: CC(=O)CC1C(O)C(O)C(O)CN1Cc1cccc(C)c1 [Compound 5k, (1R, 2S, 3R, 4R)-1-Acetylmethyl-2,3,4-trihydroxyl-N-3-methylbenzylpiperidine]
- inhibition of α-glucosidase, in words (α-glucosidase from yeast): The same result was obtained

SMILES: CC(=O)CC1C(O)C(O)C(O)CN1Cc1ccc(C(F)(F)F)cc1 [Compound 5l, (1R, 2S, 3R, 4R)-1-Acetylmethyl-2,3,4-trihydroxyl-N-4-trifluoromethylbenzylpiperidine]
- inhibition of α-glucosidase, in words (α-glucosidase from yeast): The same result was obtained

SMILES: CC(=O)CC1C(O)C(O)C(O)CN1Cc1ccc(C#N)cc1 [Compound 5m, (1R, 2S, 3R, 4R)-1-Acetylmethyl-2,3,4-trihydroxyl-N-4-cyanobenzylpiperidine]
- inhibition of α-glucosidase, in words (α-glucosidase from yeast): The same result was obtained

SMILES: CC(=O)CC1C(O)C(O)C(O)CN1Cc1ccc([N+](=O)[O-])cc1 [Compound 5n, (1R, 2S, 3R, 4R)-1-Acetylmethyl-2,3,4-trihydroxyl-N-4-nitrobenzylpiperidine]
- inhibition of α-glucosidase, in words (α-glucosidase from yeast): The same result was obtained

SMILES: COc1ccc(CN2C[C@@H](O)[C@@H](O)[C@@H](O)[C@H]2CC(C)=O)cc1 [Compound 5o, (1R, 2S, 3R, 4R)-1-Acetylmethyl-2,3,4-trihydroxyl-N-4-methoxylbenzylpiperidine]
- inhibition of α-glucosidase, in words (α-glucosidase from yeast): The same result was obtained

SMILES: COc1cccc(CN2C[C@@H](O)[C@@H](O)[C@@H](O)[C@H]2CC(C)=O)c1 [Compound 5p, (1R, 2S, 3R, 4R)-1-Acetylmethyl-2,3,4-trihydroxyl-N-3-methoxylbenzylpiperidine]
- inhibition of α-glucosidase, in words (α-glucosidase from yeast): The same result was obtained

SMILES: CC(=O)CC1C(O)C(O)C(O)CN1Cc1ccc(Cl)cc1 [Compound 5q, (1R, 2S, 3R, 4R)-1-Acetylmethyl-2,3,4-trihydroxyl-N-4-chlorobenzylpiperidine]
- inhibition of α-glucosidase, in words (α-glucosidase from yeast): doesn’t show any significant improvement

SMILES: CC(=O)CC1C(O)C(O)C(O)CN1Cc1ccccc1Cl [Compound 5r, (1R, 2S, 3R, 4R)-1-Acetylmethyl-2,3,4-trihydroxyl-N-2-chlorobenzylpiperidine]
- pIC50 (α-glucosidase from yeast): 4.92
- inhibition of α-glucosidase, in words (α-glucosidase from yeast): enhanced the enzyme inhibition

SMILES: CC(=O)CC1C(O)C(O)C(O)CN1Cc1cccc(Cl)c1 [Compound 5t, (1R, 2S, 3R, 4R)-1-Acetylmethyl-2,3,4-trihydroxyl-N-3-chlorobenzylpiperidine]
- inhibition of α-glucosidase, in words (α-glucosidase from yeast): doesn’t show any significant improvement

SMILES: CC(=O)CC1C(O)C(O)C(O)CN1Cc1ccc(Br)cc1 [Compound 5u, (1R, 2S, 3R, 4R)-1-Acetylmethyl-2,3,4-trihydroxyl-N-4-bromobenzylpiperidine]
- inhibition of α-glucosidase, in words (α-glucosidase from yeast): doesn’t show any significant improvement

SMILES: CC(=O)CC1C(O)C(O)C(O)CN1Cc1ccccc1Br [Compound 5v, (1R, 2S, 3R, 4R)-1-Acetylmethyl-2,3,4-trihydroxyl-N-2-bromobenzylpiperidine]
- inhibition of α-glucosidase, in words (α-glucosidase from yeast): enhanced the enzyme inhibition

SMILES: CC(=O)CC1C(O)C(O)C(O)CN1Cc1cccc(Br)c1 [Compound 5w, (1R, 2S, 3R, 4R)-1-Acetylmethyl-2,3,4-trihydroxyl-N-3-bromobenzylpiperidine]
- inhibition of α-glucosidase, in words (α-glucosidase from yeast): doesn’t show any significant improvement

SMILES: CC(=O)CC1C(O)C(O)C(O)CN1Cc1ccc(F)cc1 [Compound 5x, (1R, 2S, 3R, 4R)-1-Acetylmethyl-2,3,4-trihydroxyl-N-4-fluorobenzylpiperidine]
- inhibition of α-glucosidase, in words (α-glucosidase from yeast): doesn’t show any significant improvement

SMILES: CC(=O)CC1C(O)C(O)C(O)CN1Cc1ccccc1F [Compound 5y, (1R, 2S, 3R, 4R)-1-Acetylmethyl-2,3,4-trihydroxyl-N-2-fluorobenzylpiperidine]
- inhibition of α-glucosidase, in words (α-glucosidase from yeast): doesn’t show any significant improvement

SMILES: CC(=O)CC1C(O)C(O)C(O)CN1Cc1cccc(F)c1 [Compound 5z, (1R, 2S, 3R, 4R)-1-Acetylmethyl-2,3,4-trihydroxyl-N-3-fluorobenzylpiperidine]
- inhibition of α-glucosidase, in words (α-glucosidase from yeast): doesn’t show any significant improvement

SMILES: CC(=O)CC1C(O)C(O)C(O)CN1Cc1ccccc1O [Compound 5θ, (1R, 2S, 3R, 4R)-1-Acetylmethyl-2,3,4-trihydroxyl-N-2-hydroxylbenzylpiperidine]
- pIC50 (α-glucosidase from yeast): < 4.70
- inhibition of α-glucosidase, in words (α-glucosidase from yeast): reduced the inhibitory potency significantly

SMILES: CC(=O)CC1C(O)C(O)C(O)CN1Cc1ccc(O)cc1 [Compound 5λ, (1R, 2S, 3R, 4R)-1-Acetylmethyl-2,3,4-trihydroxyl-N-4-hydroxylbenzylpiperidine]
- pIC50 (α-glucosidase from yeast): 5.13
- inhibition of α-glucosidase, in words (α-glucosidase from yeast): improved the enzyme inhibition

SMILES: CC(=O)CC1C(O)C(O)C(O)CN1Cc1cccc(O)c1 [Compound 5π, (1R, 2S, 3R, 4R)-1-Acetylmethyl-2,3,4-trihydroxyl-N-3-hydroxylbenzylpiperidine]
- pIC50 (α-glucosidase from yeast): < 4.70
- inhibition of α-glucosidase, in words (α-glucosidase from yeast): reduced the inhibitory potency significantly

SMILES: CC(=O)C[C@@H]1[C@H](O)[C@H](O)[C@H](O)CN1Cc1ccc(O)c(Cl)c1 [Compound 6a, (1R, 2S, 3R, 4R)-1-Acetylmethyl-2,3,4-trihydroxyl-N-3-chloro-4-hydroxylbenzylpiperidine]
- inhibition potency compared with compound 5λ, in words (α-glucosidase from yeast): slightly improve the inhibition potency
- pIC50 (α-glucosidase from yeast; [1]): 5.25

SMILES: CC(=O)C[C@@H]1[C@H](O)[C@H](O)[C@H](O)CN1Cc1ccc(O)c(Br)c1 [Compound 6b, (1R, 2S, 3R, 4R)-1-Acetylmethyl-2,3,4-trihydroxyl-N-3-bromo-4-hydroxylbenzylpiperidine]
- inhibition potency compared with compound 5λ, in words (α-glucosidase from yeast): slightly improve the inhibition potency
- pIC50 (α-glucosidase from yeast; [1]): 5.28

SMILES: CC(=O)C[C@@H]1[C@H](O)[C@H](O)[C@H](O)CN1Cc1ccc(O)c(F)c1 [Compound 6c, (1R, 2S, 3R, 4R)-1-Acetylmethyl-2,3,4-trihydroxyl-N-3-fluoro-4-hydroxylbenzylpiperidine]
- inhibition potency compared with compound 5λ, in words (α-glucosidase from yeast): slightly improve the inhibition potency
- pIC50 (α-glucosidase from yeast; [1]): 5.48

SMILES: CC(=O)C[C@@H]1[C@H](O)[C@H](O)[C@H](O)CN1Cc1ccc(O)cc1Cl [Compound 6d, (1R, 2S, 3R, 4R)-1-Acetylmethyl-2,3,4-trihydroxyl-N-2-chloro-4-hydroxylbenzylpiperidine]
- inhibition compared with positive control Acarbose, in words (α-glucosidase from yeast): equivalent to positive control Acarbose
- pIC50 (α-glucosidase from yeast; [1]): 5.62

SMILES: CC(=O)C[C@@H]1[C@H](O)[C@H](O)[C@H](O)CN1Cc1c(Cl)cc(O)cc1Cl [Compound 6e, (1R, 2S, 3R, 4R)-1-Acetylmethyl-2,3,4-trihydroxyl-N-2,6-dichloro-4-hydroxylbenzylpiperidine]
- inhibition compared with positive control Acarbose, in words (α-glucosidase from yeast): stronger inhibitory potency than positive control Acarbose
- inhibitory potency relative to positive control Acarbose (α-glucosidase from yeast): 2 fold
- pIC50 (α-glucosidase from yeast; [1]): 6.05
- type of enzyme inhibition (α-glucosidase; Lineweaver-Burk plots): uncompetitive inhibitor
- pKi (α-glucosidase; Lineweaver-Burk plots, different substrate concentration): 5.07
- reversibility of inhibition (α-glucosidase; enzyme activity after removal of inhibitor by ultrafiltration): reversible inhibitor

SMILES: COc1cc(CN2C[C@@H](O)[C@@H](O)[C@@H](O)[C@H]2CC(C)=O)ccc1O [Compound 6f, (1R, 2S, 3R, 4R)-1-Acetylmethyl-2,3,4-trihydroxyl-N-4-hydroxyl-methoxylbenzylpiperidine]
- pIC50 (α-glucosidase from yeast): < 4.70
- inhibition potency compared with compound 5λ, in words (α-glucosidase from yeast): severely diminishes the inhibition

SMILES: CCOc1cc(CN2C[C@@H](O)[C@@H](O)[C@@H](O)[C@H]2CC(C)=O)ccc1O [Compound 6g, (1R, 2S, 3R, 4R)-1-Acetylmethyl-2,3,4-trihydroxyl-N-3-ethyoxyl-4-hydroxylbenzylpiperidine]
- pIC50 (α-glucosidase from yeast): < 4.70
- inhibition potency compared with compound 5λ, in words (α-glucosidase from yeast): severely diminishes the inhibition

SMILES: COc1ccc(CN2C[C@@H](O)[C@@H](O)[C@@H](O)[C@H]2CC(C)=O)cc1O [Compound 6h, (1R, 2S, 3R, 4R)-1-Acetylmethyl-2,3,4-trihydroxyl-N-3-hydroxyl-4-methoxylbenzylpiperidine]
- pIC50 (α-glucosidase from yeast): < 4.70

SMILES: CC(=O)C[C@@H]1[C@H](O)[C@H](O)[C@H](O)CN1Cc1cc(Br)c(O)c(Br)c1 [Compound 6i, (1R, 2S, 3R, 4R)-1-Acetylmethyl-2,3,4-trihydroxyl-N-3,5-dibromo-4-hydroxylbenzylpiperidine]
- inhibition potency compared with compound 5λ, in words (α-glucosidase from yeast): slightly improve the inhibition potency
- pIC50 (α-glucosidase from yeast; [1]): 5.26
